The subject of data set [1] is transfected rat basophil cells (RBL-2H3 ATCC® CRL-2256™) expressing the IgE human receptor (FcRI). Description: Anti-itch activity: basophil degranulation, β-hexosaminidase release. The conditions noted are these: for % degranulation inhibition: basophils activated with anti-IgE receptor. In kind it is cell-based. The source says: In vivo, a basophil cell degranulation mediated by IgE triggers an immediate allergic reaction characterized by the quick release of pre-stored inflammatory mediators (histamine, leukotrienes, thromboxane, basophilic enzymes, hexosaminidases), causing redness, rashes, itchiness and local inflammatory reactions. The ability of a composition to inhibit the degranulation of basophil cells is an indicator of its capability to inhibit the above described symptoms and above them mainly itching.
The test is carried out on a cell line of transfected rat basophil cells (RBL-2H3 ATCC® CRL-2256™) expressing the IgE human receptor (FcRI). Cells are kept in RPMI containing 10% FCS and 2 mM glutamine.
Untreated cells were used as negative control for the spontaneous degranulation.
A positive control consisting in cells exposed to anti-human IgE receptor antibodies was used to evaluate the maximal degranulation level.
Cell lysates in 1% Triton were also analyzed in order to evaluate the highest possible release of the analyzed molecules.
The release of β-hexosaminidase during degranulation was monitored on RBL-SX38 cell supernatant added with […]-N-acetyl-β-D-glucosamine (Sigma-Aldrich) in 0.1 M citrate buffer (pH 6.2) and incubated at 37° C. for 120 min. The reaction was terminated using 0.1M carbonate buffer (pH 10), and the absorbance was read at 405 nm (OD405).
The supernatant of untreated cells was used as negative control. The maximal stimulation of RBL-SX38 was evaluated on a 1% Triton X-100 lysate of the cell monolayer.
Sodium hyaluronate in serial dilutions, as indicated in the following Table 11, was also used as a control of the inhibition of basophil degranulation.
The inhibition degranulation percentage of activated basophil with IgE receptor has been calculated with the following formula: […]

Data set [2] deals with IL-1α. Description: In vitro soothing efficacy, SLS-induced IL-1α release by ELISA. In kind it is cell-based, human. The conditions noted are these: SLS 0.30% for 70 minutes, then CBD-S5 diluted at 2%, positive control = SLS only. The method, then:
(§1) The assay assessed quantitatively the effects of the sample in protecting skin cells and in inhibiting the […] reaction caused by moderate irritating agents as sodium lauryl sulfate (SLS) by means of a multilayer in vitro skin cell model.
(§2) The inhibition of the SLS-induced release of IL-1α cytokine was investigated (through specific ELISA assay) following exposure to the tested substance and respect to skin untreated samples. Cell viability was determined by the MTT assay.
(§3) Both assays used a reconstructed artificial human skin model comprising normal human epidermal keratinocytes, growing as an integrated three-dimensional cell culture model, perfectly mimicking the human skin in vitro. […] The model was supplied by Episkin (Lion, Batch 20-RHE-041).
Epidermis was treated for 70 minutes with SLS at 0.30% in order to induce IL-1α synthesis and release. […] As negative control, two epidermis units were treated with phosphate buffer, while epidermis units treated for 70 minutes with SLS 0.30% were used as positive control. Test was carried out in two replicates.
For IL-1α assay, the culture medium has been collected at 6 and 24 hours. […] IL-1α was determined in the medium culture of treated and not treated epidermis, using a direct ELISA test (Enzyme-linked immunosorbent assay). […] Samples were read at 450 nm. […]
Cytokine concentration was determined using a standard curve. […]
A general note: An ELISA detects its analyte on a solid surface through an enzyme-linked reagent.

For data set [3], the system named is human hair dermal papilla cells (HHDPCs). The experiment in a line: Mitogenesis in hair bulb cells, cell viability by MTT after starving. Format: cell-based. The following applies: positive control (human insulin), % of negative control. As for the experimental part:
(§4) The test is carried out on human hair dermal papilla cells (HHDPCs) with fibroblast-like morphology. Cells are cultured in MEM containing 10% FBS and antibiotics.
(§5) Cells have been seeded in 24 wells plates and allowed to grow for 24 h at 37° C. and 5% CO2. Cells underwent starvation in serum-free medium for 6 hours before treatment.
(§6) The niosome dispersion was dissolved directly in the medium culture. The test was carried out in three replicates.
(§7) After 24- and 48-hours exposure the cell viability and the total cellular protein content were assessed on separate plates. Untreated cells were used as negative controls (NC); cells treated with human insulin were used as positive control (PC).
The cell viability was assessed by incubating the tissues for 2 hours with MTT (3-[4,5-dimethylthiazol-2-yl]-2,5-diphenyl tetrazolium bromide) solution. The precipitated formazan was then extracted using DMSO and quantified spectrophotometrically. The absorbance at 570 nm (OD570) was measured with a microplate reader (Tecan, Infinite 200 PRO), deducting background at 650 nm (OD650).
The cell viability was expressed in percentage terms according to the following formula: […]

For data set [4] the test system is unchanged. Description: Mitogenesis in hair bulb cells, total cellular protein content (Bradford). In kind it is cell-based. The conditions noted are these: positive control (human insulin), % of negative control. The method, then: as §4, §5, §6, §7
The total cellular protein content was tested according to Bradford method. Cells at the end of the treatment were washed twice with PBS and lysed by treatment with purified water at 4° C. Dye reagent was added to each sample. […] Reading was made at 595 nm with a colorimeter equipped with a plate-reader.
To quantify proteins, a standard plot with albumin was designed and the sample concentrations were determined on the bases of their absorbance values using the interpolation plot formula. Mean values of every set of data were calculated, and for each sample the percentage of increase in the protein synthesis was determined by comparison with the negative control (NC) according to the following formula: […]

Data set [5] concerns reconstituted human epidermis (RHE). The experiment in a line: In vitro irritation test on reconstituted human epidermis, MTT cell viability. In kind it is cell-based. The conditions noted are these: 60 minutes treatment, 24 hours incubation, % of negative control, 25 μg CBD-S5 or 30 μL 5% SDS. The method, then: The in vitro test consists of a topical exposure of the test substance on reconstituted human epidermis (RHE) followed by a cell viability test.
Cell viability is determined by the conversion of MTT (3-(4,5-dimethylthiazol-2-yl)-2,5-diphenyltetrazolium bromide) to a formazan blue salt, which is quantitatively measured after extraction from tissue. Conversion occurs via the mitochondrial enzyme succinate dehydrogenase, which is only active in living cells, causing the MTT tetrazole ring to open and formazan to form. Assessment of the viability of tissues exposed to the test substance compared to the negative control (treated with Dulbecco's phosphate buffered saline—DPBS) and the positive control (treated with sodium dodecyl sulphate—SDS) is used to predict skin irritation potential.
The reconstructed human epidermis model consists of normal human-derived epidermal keratinocytes cultured to recreate a highly differentiated multilayered human epidermis. […]
The optical density of the extracted formazan is determined spectrophotometrically at a wavelength of 570 nm using the μQUANT BIO TEK Microplate Spectrophotometer. Relative cell viability is calculated for each tissue as % of the mean optical density of the negative control tissues.

Data set [6] concerns IL-1α. Description: Particulate (PM2.5) resistance test, IL-1α release by ELISA. Format: cell-based, human. The conditions noted are these: sample alone, 24 h at 37° C.; 30 μl CBD-S5, 30 μl SDS 5% or 20 μg PM2.5; untreated RHE (NC) = 100%. The method, then: After incubation at 37° C. for 24 h in a controlled atmosphere of 5% CO2, the cell viability of the RHE sample was assessed by MTT assay, as described in Example 5A, while the culture medium was collected and analyzed for IL-1α release by ELISA assay, using an EMIL1ALPHA kit (Invitrogen-Thermo Scientific) with the following procedure.
100 μl of medium from each treatment was transferred to wells coated with anti-human IL-1α and incubated for 2 hours at room temperature. At the end of the incubation, the medium was removed and the wells were washed 4 times with 1× Wash Buffer. 100 μl of biotinylated antibody was added to each well and incubated for 1 hour at room temperature. At the end, the wells were washed 4 times with 1× Wash Buffer, treated with 100 μl of Streptavidin-HRP solution for 45 minutes at room temperature and finally washed 4 times with 1× Wash Buffer. 100 μl of TMB substrate was added to each well and incubated for 10 minutes in the dark. Finally, 100 μl of stop solution was added to each well and spectrophotometric readings were taken at wavelengths of 450 nm and 550 nm using the μQUANT BIO TEK Microplate Spectrophotometer instrument.
Changes in IL-1α levels released from the RHE tissue after each treatment were expressed as % values compared to the untreated RHE (NC) used as control (100%).

A short description of data set [7]: In vitro soothing efficacy, cell viability by MTT after SLS. Format: cell-based. The following applies: human; read-out: % mean cell viability (standard deviation). As for the experimental part: as §1, §2, §3
Epidermis was treated for 70 minutes with SLS at 0.30% in order to induce IL-1α synthesis and release. […] As negative control, two epidermis units were treated with phosphate buffer, while epidermis units treated for 70 minutes with SLS 0.30% were used as positive control. […]
Epidermis units were treated with 1 mg/ml MTT solution (3-[4,5-dimethylthiazol-2-yl]-2,5-diphenyl tetrazolium bromide) for 3 h at 37° C. […] Two aliquots of every sample were transferred to a 96 well plate for the reading. The absorbance (OD) was read at the wavelength of 570 nm with a colorimeter (Tecan model Infinite F200) equipped with a microplate reader. […]

As for Triton X-100, in data set [1] (controls: maximal degranulation by anti-human IgE receptor antibodies, 1% Triton X-100 lysate, negative control 0.068), the OD405 is given as 1.852.
“Positive control: positive control of Example 10: cells treated with human insulin”: the “IL-1α, 6 hours” value in data set [2] (culture medium at 6 hours) was found to be 105.57 pg/mL. In data set [2] (culture medium at 24 hours), the “IL-1α, 24 hours” value is 597.32 pg/mL. In addition, the “% cell viability (ds)” value is 136.73% in data set [3] (24 hours) and 136.72 (8.16) % in data set [3] (48 hours). In addition, the “% protein synthesis (ds)” value was 140.65% in data set [4] (24 hours) and 149.65 (10.83) % in data set [4] (48 hours).
On to `CCCCCCCCCCCCOS(=O)(=O)[O-].[Na+]` [PC, sodium dodecyl sulphate], for which the “Mean relative viability (%)” value in data set [5] came to 2.16%. Besides, the “Mean IL-1α release (%)” value in data set [6] was 235.35%.
Turning to “Sodium hyaluronate [Hyaluronic acid (HA)]”, the OD405 in data set [1] (1.25 mg/ml + positive control (anti-human IgE receptor)) is recorded as 0.879; in data set [1] (1.25 mg/ml, sample alone (spontaneous degranulation)) it was 0.086; in data set [1] (2.5 mg/ml + positive control (anti-human IgE receptor)), 0.690; in data set [1] (2.5 mg/ml, sample alone (spontaneous degranulation)), 0.084; in data set [1] (5 mg/ml + positive control (anti-human IgE receptor)) it was 0.527; in data set [1] (5 mg/ml, sample alone (spontaneous degranulation)), 0.077. In addition, the OD405 in data set [1] (10 mg/ml + positive control (anti-human IgE receptor)) was determined as 0.255; in data set [1] (10 mg/ml, sample alone (spontaneous degranulation)), 0.065. Besides, the “% degranulation inhibition” value in data set [1] (1.25 mg/ml) turned out to be 15.7%; in data set [1] (2.5 mg/ml) it was 35.3%; in data set [1] (5 mg/ml) it was 52.3%; in data set [1] (10 mg/ml), 80.6%.
As to `CCCCCCCCCCCCOS(=O)(=O)[O-].[Na+]` [Positive control (PC), sodium lauryl sulfate], the viability at 70 min, 0.3 % in data set [7] turned out to be 47.4%.

Broadly, the viability is the share of living cells, or the viability signal relative to a control.
